Data: the RepoRT retention time repository (doi:10.1007/s00216-021-03828-0)

Experiments:
Conditions in all cases: stereoisomer not certain
[1] = RP, Merck Supelco Ascentis Express C18, 100 × 2.1 mm, 2 µm, 40 °C, 0.35 mL/min, estimated dead time 0.63 min; A: water + 0.1% formic acid, pH 3; B: acetonitrile + 0.1% formic acid, pH 3; gradient (min/%B) 0/5 2/5 17/99.9 20/99.9
[2] = RP, Merck Supelco Ascentis Express C18, 100 × 2.1 mm, 2 µm, 40 °C, 0.4 mL/min, estimated dead time 0.55 min; A: water + 0.1% formic acid, pH 3; B: acetonitrile + 0.1% formic acid, pH 3; gradient (min/%B) 0/5 2/5 17/99.9 20/99.9
[3] = RP, Merck Supelco Ascentis Express C18, 100 × 2.1 mm, 2 µm, 39 °C, 0.3 mL/min, estimated dead time 0.73 min; A: water + 0.1% formic acid, pH 3; B: acetonitrile + 0.1% formic acid, pH 3; gradient (min/%B) 0/5 2/5 17/99.9 20/99.9
[4] = RP, Merck Supelco Ascentis Express C18, 100 × 2.1 mm, 2 µm, 40 °C, 0.2 mL/min, estimated dead time 1.1 min; A: water + 0.1% formic acid, pH 3; B: acetonitrile + 0.1% formic acid, pH 3; gradient (min/%B) 0/5 2/5 17/99.9 20/99.9
[5] = RP, Merck Supelco Ascentis Express C18, 100 × 2.1 mm, 2 µm, 40 °C, 0.4 mL/min, estimated dead time 0.55 min; A: water + 0.1% formic acid, pH 3; B: acetonitrile + 0.1% formic acid, pH 3; gradient (min/%B) 0/5 2/5 17/99.9 20/99.9; remark: listed apart in the source
[6] = RP, Merck Supelco Ascentis Express C18, 100 × 2.1 mm, 2 µm, 40 °C, 0.2 mL/min, estimated dead time 1.1 min; A: water + 0.1% formic acid, pH 3; B: acetonitrile + 0.1% formic acid, pH 3; gradient (min/%B) 0/5 2/5 17/99.9 20/99.9; remark: listed apart in the source
[7] = RP, Merck Supelco Ascentis Express C18, 100 × 2.1 mm, 2 µm, 40 °C, 0.25 mL/min, estimated dead time 0.88 min; A: water + 0.1% formic acid, pH 3; B: acetonitrile + 0.1% formic acid, pH 3; gradient (min/%B) 0/5 2/5 17/99.9 20/99.9

Row | Structure (SMILES) | LC retention time [1] | LC retention time [2] | LC retention time [3] | LC retention time [4] | LC retention time [5] | LC retention time [6] | LC retention time [7]
1 | CC(CCC(=O)NCCS(=O)(=O)O)C1CCC2C3CCC4CC(O)CCC4(C)C3CCC12C (configuration not stated) [LITHOCHOLYLTAURINE] | 9.86 min | 9.62 min | 10.2 min | 11.1 min | 9.6 min | 11 min | 10.5 min
2 | Cc1cc2nc3[nH]c(=O)[nH]c(=O)c3nc2cc1C [LUMICHROME] | 5.74 min | 5.5 min | 6.03 min | 6.93 min | 5.54 min | 6.91 min | 6.4 min
3 | O=C(O)C(O)c1ccccc1 (configuration not stated) [MANDELATE] | 3.27 min | 2.88 min | 3.67 min | 4.85 min | 2.95 min | 4.83 min | 4.19 min
4 | COc1ccc2[nH]cc(CCNC(C)=O)c2c1 [MELATONIN] | 5.75 min | 5.49 min | 6.06 min | 7.01 min | 5.53 min | 7 min | 6.46 min
5 | CC(CC(=O)O)CC(=O)O [METHYGLUTARATE] | 2.21 min | 1.91 min | 2.6 min | 3.82 min | 1.95 min | 3.84 min | 3.09 min
6 | CSCC1OC(n2cnc3c(N)ncnc32)C(O)C1O (configuration not stated) [METHYLTHIOADENOSINE] | 2.58 min | 2.27 min | 2.98 min | 4.07 min | 2.3 min | 4.08 min | 3.51 min
7 | CCCCCCCCCCCCCC(=O)O [MYRISTATE] | 14.6 min | 14.2 min | 15 min | 16.4 min | 14.3 min | 16.4 min | 15.6 min
8 | CC(C)=CCNc1ncnc2nc[nH]c12 [N6-(DELTA2-ISOPENTENYL)-ADENINE] | 4.44 min | 4.21 min | 4.71 min | 5.58 min | 4.24 min | 5.58 min | 5.08 min
9 | CC(=O)NC(C)C(=O)O (configuration not stated) [N-ACETYLALANINE] | 0.853 min | 0.74 min | 1.01 min | 1.51 min | 0.737 min | 1.52 min | 1.19 min
10 | CC(=O)NC(CS)C(=O)O (configuration not stated) [N-ACETYLCYSTEINE] | 1.09 min | 0.937 min | 1.26 min | 1.91 min | 0.95 min | 1.92 min | 1.52 min
11 | CC(=O)NC(CC(C)C)C(=O)O (configuration not stated) [N-ACETYLLEUCINE] | 4.63 min | 4.36 min | 4.93 min | 5.89 min | 4.39 min | 5.9 min | 5.35 min
12 | CC(=O)NC(Cc1ccccc1)C(=O)O (configuration not stated) [N-ACETYLPHENYLALANINE] | 5.04 min | 4.78 min | 5.37 min | 6.32 min | 4.82 min | 6.31 min | 5.77 min
13 | CC(=O)N1CCCC1C(=O)O (configuration not stated) [N-ACETYLPROLINE] | 1.58 min | 1.39 min | 1.89 min | 2.76 min | 1.46 min | 2.77 min | 2.22 min
14 | CC(=O)NCCc1c[nH]c2ccc(O)cc12 [N-ACETYLSEROTONIN] | 3.77 min | 3.5 min | 4.07 min | 4.96 min | 3.52 min | 4.97 min | 4.45 min
15 | CC(=O)NC(Cc1c[nH]c2ccccc12)C(=O)O (configuration not stated) [N-ACETYLTRYPTOPHAN] | 5.32 min | 5.08 min | 5.64 min | 6.55 min | 5.1 min | 6.55 min | 6.02 min
16 | CSCC[C@H](NC=O)C(=O)O [N-FORMYL-L-METHIONINE] | 2.16 min | 1.87 min | 2.52 min | 3.77 min | 1.91 min | 3.77 min | 3.02 min
17 | CCCCC(N)C(=O)O (configuration not stated) [NORLEUCINE] | 0.91 min | 0.79 min | 1.05 min | 1.62 min | 0.8 min | 1.63 min | 1.3 min
18 | CCCCCCCCC=CCCCCCCCC(=O)OCC(O)CO (configuration not stated) [OLEOYL-GLYCEROL] | 15.5 min | 15.1 min | 15.9 min | 17.3 min | 15.1 min | 17.3 min | 16.5 min
19 | O=C(O)CCCCCCCCCCCO [OMEGA-HYDROXYDODECANOATE] | 8.4 min | 8.13 min | 8.71 min | 9.68 min | 8.17 min | 9.68 min | 9.11 min
20 | O=C(O)Cc1ccc(O)cc1 [P-HYDROXYPHENYLACETATE] | 3.64 min | 3.34 min | 4.02 min | 5 min | 3.36 min | 4.99 min | 4.43 min
21 | CCCCCCCCCCCCCCCC(=O)O [PALMITATE] | 16.1 min | 15.7 min | 16.5 min | 17.9 min | 15.7 min | 17.9 min | 17.1 min
22 | CC(C)(CO)C(O)C(=O)NCCC(=O)O (configuration not stated) [PANTOTHENATE] | 1.56 min | 1.36 min | 1.79 min | 2.7 min | 1.38 min | 2.71 min | 2.15 min
23 | Cn1c(=O)[nH]c2ncn(C)c2c1=O [PARAXANTHINE] | 2.47 min | 2.15 min | 2.81 min | 3.98 min | 2.16 min | 3.96 min | 3.33 min
24 | CCCCCCCCCCCC=CCCCCC(=O)[O-] [PETROSELINATE] | 16.4 min | 16 min | 16.8 min | 18.2 min | 16.1 min | 18.1 min | 17.4 min
25 | CC(=O)Oc1ccccc1 [PHENYL ACETATE] | 4.18 min | 3.93 min | 4.5 min | 5.43 min | 3.95 min | 5.44 min | 4.9 min
26 | NC(Cc1ccccc1)C(=O)O (configuration not stated) [PHENYLALANINE] | 1.26 min | 1.1 min | 1.46 min | 2.23 min | 1.11 min | 2.26 min | 1.77 min
